Assay results published in publication PMC11836120, “A small signaling domain controls PPIP5K phosphatase activity in phosphate homeostasis” (Nature Communications, 2025).

How the values were obtained:
[1] = biological target: T1, ScVip1 kinase domain (ScVip1^KD) (Saccharomyces cerevisiae, UniProt Q06685); experiment: co-crystal structure, […] Å (crystallized with […] ADP and […] MgCl2); format: binding
T1 construct: gene VIP1; residues 186–522

[2] = biological target: T2, ScVip1 kinase-phosphatase tandem domains (ScVip1^KD-PD) (Saccharomyces cerevisiae, UniProt Q06685); experiment: HDX-MS, […] molar excess
T2 construct: gene VIP1
T2 sequence (Q06685 186-1107): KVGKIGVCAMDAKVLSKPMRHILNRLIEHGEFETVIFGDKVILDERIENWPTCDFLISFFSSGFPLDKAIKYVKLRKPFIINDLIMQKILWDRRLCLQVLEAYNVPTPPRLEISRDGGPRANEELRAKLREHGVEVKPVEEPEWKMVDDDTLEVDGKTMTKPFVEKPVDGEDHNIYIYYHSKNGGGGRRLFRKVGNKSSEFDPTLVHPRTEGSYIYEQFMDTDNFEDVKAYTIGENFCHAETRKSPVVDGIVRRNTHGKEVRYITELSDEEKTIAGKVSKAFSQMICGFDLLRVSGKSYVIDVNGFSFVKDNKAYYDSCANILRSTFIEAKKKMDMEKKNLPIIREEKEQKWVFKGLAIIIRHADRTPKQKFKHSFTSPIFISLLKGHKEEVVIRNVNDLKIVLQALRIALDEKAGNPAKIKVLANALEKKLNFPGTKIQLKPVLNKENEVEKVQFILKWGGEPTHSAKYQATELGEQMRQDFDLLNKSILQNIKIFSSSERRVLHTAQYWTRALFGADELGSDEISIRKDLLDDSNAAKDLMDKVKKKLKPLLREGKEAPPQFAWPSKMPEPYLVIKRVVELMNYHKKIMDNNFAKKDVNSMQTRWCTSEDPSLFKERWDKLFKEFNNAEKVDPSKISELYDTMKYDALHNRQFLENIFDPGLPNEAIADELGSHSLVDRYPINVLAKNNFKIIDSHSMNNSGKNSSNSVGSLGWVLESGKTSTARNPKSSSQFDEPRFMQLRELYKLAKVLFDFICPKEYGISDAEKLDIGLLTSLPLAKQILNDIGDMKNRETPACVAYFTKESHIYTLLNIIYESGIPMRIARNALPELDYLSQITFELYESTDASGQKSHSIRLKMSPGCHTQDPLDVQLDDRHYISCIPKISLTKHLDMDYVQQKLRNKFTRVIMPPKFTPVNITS

[3] = biological target: T3, ScVip1 phosphatase domain (ScVip1^PD) (Saccharomyces cerevisiae, UniProt Q06685); experiment: NMR time course of […],5-InsP8 hydrolysis; format: biochemical
T3 construct: gene VIP1; residues 536–1107
T3 sequence (Q06685 536-1107): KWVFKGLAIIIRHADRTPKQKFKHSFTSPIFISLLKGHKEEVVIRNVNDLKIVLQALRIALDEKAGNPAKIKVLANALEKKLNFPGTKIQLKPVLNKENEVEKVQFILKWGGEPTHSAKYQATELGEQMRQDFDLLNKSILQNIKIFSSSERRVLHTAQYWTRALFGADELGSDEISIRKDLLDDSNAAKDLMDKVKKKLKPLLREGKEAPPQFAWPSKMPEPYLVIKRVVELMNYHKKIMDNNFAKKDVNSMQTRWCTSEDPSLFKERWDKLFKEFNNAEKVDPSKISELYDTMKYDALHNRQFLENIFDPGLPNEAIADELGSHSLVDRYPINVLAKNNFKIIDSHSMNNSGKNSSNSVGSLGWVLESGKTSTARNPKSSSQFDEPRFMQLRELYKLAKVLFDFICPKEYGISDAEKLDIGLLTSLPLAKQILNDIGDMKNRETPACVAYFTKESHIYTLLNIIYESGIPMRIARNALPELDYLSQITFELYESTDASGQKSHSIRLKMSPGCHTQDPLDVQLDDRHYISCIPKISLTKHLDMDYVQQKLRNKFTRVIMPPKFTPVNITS

[4] = biological target: T4, ScVip1 phosphatase domain (ScVip1^PD E991A) (Saccharomyces cerevisiae, UniProt Q06685, E991A); experiment: NMR and malachite green phosphatase assays; format: biochemical
T4 construct: gene VIP1; residues 536–1107
T4 sequence (Q06685 536-1107 E991A): T3 sequence (Q06685 536-1107)

[5] = substrate: O=P(O)(O)O[C@@H]1[C@@H](OP(=O)(O)O)[C@H](OP(=O)(O)OP(=O)(O)O)[C@@H](OP(=O)(O)O)[C@H](OP(=O)(O)OP(=O)(O)O)[C@@H]1OP(=O)(O)O; experiment: malachite green and NMR phosphatase assays, Michaelis-Menten KM; format: biochemical, Saccharomyces cerevisiae; settings: phosphatase active site (RHxxR motif) and GAF-domain substrate channel
[6] = substrate: O=P(O)(O)O[C@@H]1[C@@H](OP(=O)(O)O)[C@@H](OP(=O)(O)O)[C@@H](OP(=O)(O)OP(=O)(O)O)[C@H](OP(=O)(O)O)[C@H]1OP(=O)(O)O; experiment: as above; format: biochemical, Saccharomyces cerevisiae

## Nc1ncnc2c1ncn2[C@@H]1O[C@H](COP(=O)(O)OP(=O)(O)O)[C@@H](O)[C@H]1O [ADP]
[1]
  co-crystal structure, 1.18 Å (crystallized with 5 mM ADP and 20 mM MgCl2): The structure of ScVip1^KD in complex with adenosine diphosphate revealed the typical ATP-grasp fold and substrate binding sites

## Nc1ncnc2c1ncn2[C@@H]1O[C@H](CO[P@](=O)(O)O[P@](=O)(O)NP(=O)(O)O)[C@@H](O)[C@H]1O [AMPPNP, AMP-PNP]
[2]
  HDX-MS, 100-fold molar excess: Addition of an ATP substrate analog reveals additional protected regions in the vicinity of the active site of the kinase domain

## O=P(O)(O)O [inorganic phosphate]
[3]
  NMR time course of 1,5-InsP8 hydrolysis: ScVip1^PD is inhibited by Pi in a concentration-dependent manner, as inferred from NMR-based assays

## O=P(O)(O)O[C@@H]1[C@@H](OP(=O)(O)O)[C@@H](OP(=O)(O)O)[C@@H](OP(=O)(O)OP(=O)(O)O)[C@H](OP(=O)(O)O)[C@H]1OP(=O)(O)O [1-InsP7]
[4]
  NMR and malachite green phosphatase assays: Glu991 to Ala mutant readily accepts 1-InsP7 as a substrate in both NMR and malachite green-based phosphatase assays

B1: ScVip1 phosphatase domain (ScVip1^PD) (Saccharomyces cerevisiae S288C) (protein)
chain: T3 sequence (Q06685 536-1107)
notes: residues 536–1107
[5]
  Km: 45 µM
[6]
  Km: 70 µM
